The structures appear in SMILES notation. Counter-ions that a name gives are not always drawn.

The nature of series [1]: Apparent LNP pKa by 2-(p-toluidino)-6-napthalene sulfonic acid (TNS) assay. To be noted: pH at half of maximum fluorescence. It is filed as physicochemical.
Series [2] is described as follows: Heparin-sepharose binding of nanoparticles.
Series [3] in a line: Surface hydrophobicity by Generalized Polarization by Laurdan (GPL). Format: physicochemical. As to conditions: normalized Generalized Polarization by Laurdan; higher N-GP = less polar surface. The source says:
Nanoparticle compositions including a therapeutic and/or prophylactic can be optimized according to the selection of a compound according to Formula (I), (I-1), (A), (A-1), (A-1a), or (A-1b), the selection of additional lipids, the amount of each lipid in the lipid component, and the wt:wt ratio of the lipid component to the therapeutic and/or prophylactic. Nanoparticle compositions including DSPC as a phospholipid, cholesterol as a structural lipid, PEG 2 as a PEG lipid, and a compound according to Formula (I), (I-1), (A), (A-1), (A-1a), or (A-1b) were prepared. The ratios of the lipids were 50:10:38:2 mol % for the lipid according to Formula (I), (I-1), (A), (A-1), (A-1a), or (A-1b):DSPC:cholesterol:PEG 2.
Laurdan, a fluorescent aminonaphthalene ketone lipid, was post-inserted into the nanoparticle surface and the fluorescence spectrum of Laurdan was collected to determine the normalized Generalized Polarization (N-GP). Higher N-GP indicates a less polar surface.

The next series concerns hEPO mRNA. The series can be described thus: hEPO expression in CD1-mice after intravenous administration of nanoparticles. Format: in vivo. To be noted: 6 h after intravenous administration, mRNA dose 0.5 mg/kg, N:P 3.4, compound:DSPC:cholesterol:PEG 2 50:10:38:2. The procedure:
The expression of hEPO mRNA in CD1-mice was measured 6 h after intravenous administration of nanoparticles comprising a compound of the disclosure, DSPC, cholesterol, and PEG 2 in a ratio of 50:10:38:2. […] Each composition was dosed to 8 animals at an mRNA dose of 0.5 mg/kg.

`CCCCCCCCC(CC)OC(=O)CCCCCCCN(CCCCCCCC(=O)OC(CCCCCCCC)CCCCCCCC)CCCN/C=C1\NC(=O)NC1=O` (mixture of isomers) [Compound 51/52, Heptadecan-9-yl (E/Z)-8-((3-(((2,5-dioxoimidazolidin-4-ylidene)methyl)amino)propyl)(8-oxo-8-(undecan-3-yloxy)octyl)amino)octanoate]: the “LogIC50 (pKa)” value in series [1] is reported as 6.48. Moreover, the “Relative % Area Bound by LNP” value in series [2] was 2.25%. The “Average N-GP” value in series [3] was 0.921. Further, the “Avg. [hEPO] mIU/mL” value with hEPO mRNA was 1.86E+05 mIU/mL.

Turning to `CCCCCCCCC(CC)OC(=O)CCCCCCCN(CCCCCCCC(=O)OC(CCCCCCCC)CCCCCCCC)CCCN/C(=N/O)c1nonc1N` (racemic) [Compound 55/56, Heptadecan-9-yl (E/Z)-8-((3-(4-amino-N′-hydroxy-1,2,5-oxadiazole-3-carboximidamido)propyl)(8-oxo-8-(undecan-3-yloxy)octyl)amino)octanoate], in series [1], the “LogIC50 (pKa)” value was 5.61. Besides, the “Relative % Area Bound by LNP” value in series [2] is 0%. Besides, the “Avg. [hEPO] mIU/mL” value in the series with hEPO mRNA was 1.37E+05 mIU/mL.

In the case of `CCCCCCCCC(CC)OC(=O)CCCCCCCN(CCCCCCCC(=O)OC(CCCCCCCC)CCCCCCCC)CCCNc1nnc(N)[nH]1` (stereo not drawn) [Compound 11, Heptadecan-9-yl 8-((3-((5-amino-4H-1,2,4-triazol-3-yl)amino)propyl)(8-oxo-8-(undecan-3-yloxy)octyl)amino)octanoate], the “LogIC50 (pKa)” value in series [1] is given as 6.88. Moreover, the “Avg. [hEPO] mIU/mL” value with hEPO mRNA came to 1.69E+04 mIU/mL.

As for `CCCCCCCCC(CC)OC(=O)CCCCCCCN(CCCCCCCC(=O)OC(CCCCCCCC)CCCCCCCC)CCCNC(C(=O)NC)C(=O)NC` (stereo not drawn) [Compound 16, Heptadecan-9-yl 8-((3-((1,3-bis(methylamino)-1,3-dioxopropan-2-yl)amino)propyl)(8-oxo-8-(undecan-3-yloxy)octyl)amino)octanoate Trifluoroacetate Salt], the “LogIC50 (pKa)” value in series [1] came to 7.01. Moreover, the “Relative % Area Bound by LNP” value in series [2] turned out to be 57.65%. Moreover, the “Average N-GP” value in series [3] was 0.595. Moreover, the “Avg. [hEPO] mIU/mL” value in the series on hEPO mRNA came out at 1.72E+05 mIU/mL.

Regarding `CCCCCCCCC(CC)OC(=O)CCCCCCCN(CCCCCCCC(=O)OC(CCCCCCCC)CCCCCCCC)CCCNc1nccnc1NC` (stereo not drawn) [Compound 25, Heptadecan-9-yl 8-((3-((3-(methylamino)pyrazin-2-yl)amino)propyl)(8-oxo-8-(undecan-3-yloxy)octyl)amino)octanoate, trifluoroacetate Salt], the “LogIC50 (pKa)” value in series [1] worked out at 7.46. The “Relative % Area Bound by LNP” value in series [2] is given as 0%. Further, in series [3], the “Average N-GP” value came out at 0.869. Also, the “Avg. [hEPO] mIU/mL” value in the series with hEPO mRNA was determined as 4.29E+05 mIU/mL.

Regarding `CCCCCCCCC(CC)OC(=O)CCCCCCCN(CCCCCCCC(=O)OC(CCCCCCCC)CCCCCCCC)CCCNS(=O)(=O)c1ncccn1` (stereo not drawn) [Compound 73, Heptadecan-9-yl 8-((8-oxo-8-(undecan-3-yloxy)octyl)(3-(pyrimidine-2-sulfonamido)propyl)amino)octanoate], in series [1], the “LogIC50 (pKa)” value is 6.61. Also, in series [2], the “Relative % Area Bound by LNP” value is 0%. The “Average N-GP” value in series [3] was 0.747. In addition, the “Avg. [hEPO] mIU/mL” value in the series on hEPO mRNA is 4.64E+05 mIU/mL.

For the molecule `CCCCCCCCC(CC)OC(=O)CCCCCCCN(CCCCCCCC(=O)OC(CCCCCCCC)CCCCCCCC)CCCNS(=O)(=O)Cc1ccccc1` (stereo not drawn) [Compound 74, Heptadecan-9-yl 8-((8-oxo-8-(undecan-3-yloxy)octyl)(3-((phenylmethyl)sulfonamido)propyl)amino)octanoate], the “LogIC50 (pKa)” value in series [1] amounted to 6.42. Further, the “Relative % Area Bound by LNP” value in series [2] worked out at 6.14%. For the same molecule, in series [3], the “Average N-GP” value is given as 0.938. In the series with hEPO mRNA, the “Avg. [hEPO] mIU/mL” value came to 1.21E+05 mIU/mL.

As for `CCCCCCCCC(CC)OC(=O)CCCCCCCN(CCCCCCCC(=O)OC(CCCCCCCC)CCCCCCCC)CCCNS(=O)(=O)c1ccnn1COC` (stereo not drawn) [Compound 75, Heptadecan-9-yl 8-((3-((1-(methoxymethyl)-1H-pyrazole)-5-sulfonamido)propyl)(8-oxo-8-(undecan-3-yloxy)octyl)amino)octanoate], the “LogIC50 (pKa)” value in series [1] stood at 6.50. The “Relative % Area Bound by LNP” value in series [2] worked out at 1.97%. Moreover, the “Average N-GP” value in series [3] turned out to be 0.831. The “Avg. [hEPO] mIU/mL” value with hEPO mRNA is 6.24E+05 mIU/mL.

With `CCCCCCCCC(CC)OC(=O)CCCCCCCN(CCCCCCCC(=O)OC(CCCCCCCC)CCCCCCCC)CCCNC(=O)CS(=O)(=O)NC` (stereo not drawn) [Compound 76, Heptadecan-9-yl 8-((3-(2-(N-methylsulfamoyl)acetamido)propyl)(8-oxo-8-(undecan-3-yloxy)octyl)amino)octanoate], in series [1], the “LogIC50 (pKa)” value is reported as 6.92. In addition, the “Relative % Area Bound by LNP” value in series [2] is reported as 31.61%. Also, the “Average N-GP” value in series [3] was determined as 0.683. Further, in the series on hEPO mRNA, the “Avg. [hEPO] mIU/mL” value is 1.50E+05 mIU/mL.

Take `CCCCCCCCC(CC)OC(=O)CCCCCCCN(CCCCCCCC(=O)OC(CCCCCCCC)CCCCCCCC)CCCNC1=NS(=O)(=O)CCN1` (stereo not drawn) [Compound 77, Heptadecan-9-yl 8-((3-((1,1-dioxido-5,6-dihydro-4H-1,2,4-thiadiazin-3-yl)amino)propyl)(8-oxo-8-(undecan-3-yloxy)octyl)amino)octanoate]: the “LogIC50 (pKa)” value in series [1] is recorded as 6.80. The “Relative % Area Bound by LNP” value in series [2] is 0%. Also, the “Average N-GP” value in series [3] is 0.824. For the same molecule, the “Avg. [hEPO] mIU/mL” value in the series with hEPO mRNA is listed as 7.75E+04 mIU/mL.

`CCCCCCCCC(CC)OC(=O)CCCCCCCN(CCCCCCCC(=O)OC(CCCCCCCC)CCCCCCCC)CCCNC(=O)C1CCC(=O)N1` (stereo not drawn) [Compound 78, Heptadecan-9-yl 8-((8-oxo-8-(undecan-3-yloxy)octyl)(3-(5-oxopyrrolidine-2-carboxamido)propyl)amino)octanoate]: in series [1], the “LogIC50 (pKa)” value came out at 6.94. For the same molecule, in series [2], the “Relative % Area Bound by LNP” value is 36.14%. Besides, the “Average N-GP” value in series [3] is on record as 0.622. Also, the “Avg. [hEPO] mIU/mL” value with hEPO mRNA came to 1.11E+05 mIU/mL.

As to `CCCCCCCCC(CC)OC(=O)CCCCCCCN(CCCCCCCC(=O)OC(CCCCCCCC)CCCCCCCC)CCCNC1=NC(=O)NC1` (stereo not drawn) [Compound 79, Heptadecan-9-yl 8-((3-((2-oxo-2,5-dihydro-1H-imidazol-4-yl)amino)propyl)(8-oxo-8-(undecan-3-yloxy)octyl)amino)octanoate], the “LogIC50 (pKa)” value in series [1] was 6.23. For the same molecule, in series [2], the “Relative % Area Bound by LNP” value is on record as 0%. The “Average N-GP” value in series [3] amounted to 0.683. In addition, in the series on hEPO mRNA, the “Avg. [hEPO] mIU/mL” value was 4.04E+04 mIU/mL.

On to `CCCCCCCCC(CC)OC(=O)CCCCCCCN(CCCCCCCC(=O)OC(CCCCCCCC)CCCCCCCC)CCCNS(=O)(=O)CC(=O)NC` (stereo not drawn) [Compound 80, Heptadecan-9-yl 8-((3-((2-(methylamino)-2-oxoethyl)sulfonamido)propyl)(8-oxo-8-(undecan-3-yloxy)octyl)amino)octanoate], for which the “LogIC50 (pKa)” value in series [1] is 6.75. The “Relative % Area Bound by LNP” value in series [2] is listed as 10.99%. For the same molecule, the “Average N-GP” value in series [3] stood at 0.703. In the series on hEPO mRNA, the “Avg. [hEPO] mIU/mL” value was found to be 7.69E+04 mIU/mL.

Turning to `CCCCCCCCC(CC)OC(=O)CCCCCCCN(CCCCCCCC(=O)OC(CCCCCCCC)CCCCCCCC)CCCNC1=C(C#N)C(=O)OC1` (stereo not drawn) [Compound 81, Heptadecan-9-yl 8-((3-((4-cyano-5-oxo-2,5-dihydrofuran-3-yl)amino)propyl)(8-oxo-8-(undecan-3-yloxy)octyl)amino)octanoate Trifluoroacetate Salt], the “LogIC50 (pKa)” value in series [1] is on record as 6.48. Besides, the “Relative % Area Bound by LNP” value in series [2] was 0%. Further, in series [3], the “Average N-GP” value worked out at 0.752. In addition, in the series on hEPO mRNA, the “Avg. [hEPO] mIU/mL” value was determined as 4.96E+05 mIU/mL.

Regarding `CCCCCCCCC(CC)OC(=O)CCCCCCCN(CCCCCCCC(=O)OC(CCCCCCCC)CCCCCCCC)CCCNc1nnc(N)s1` (stereo not drawn) [Compound 82, Heptadecan-9-yl 8-((3-((5-amino-1,3,4-thiadiazol-2-yl)amino)propyl)(8-oxo-8-(undecan-3-yloxy)octyl)amino)octanoate Trifluoroacetate Salt], in series [1], the “LogIC50 (pKa)” value is reported as 6.25. The “Relative % Area Bound by LNP” value in series [2] turned out to be 1.67%. Also, the “Average N-GP” value in series [3] worked out at 0.920. In addition, the “Avg. [hEPO] mIU/mL” value in the series on hEPO mRNA was found to be 2.18E+05 mIU/mL.

On to `CCCCCCCCC(CC)OC(=O)CCCCCCCN(CCCCCCCC(=O)OC(CCCCCCCC)CCCCCCCC)CCCN/C=N/S(C)(=O)=O` (stereo not drawn) [Compound 86, Heptadecan-9-yl (E)-8-((3-(N′-(methylsulfonyl)formimidamido)propyl)(8-oxo-8-(undecan-3-yloxy)octyl)amino)octanoate], for which the “LogIC50 (pKa)” value in series [1] is recorded as 6.59. The “Relative % Area Bound by LNP” value in series [2] is 0%. Further, in series [3], the “Average N-GP” value is reported as 0.737.

The values above are taken from patent US20230000773A1, “NOVEL HEADGROUP LIPID COMPOUNDS AND COMPOSITIONS FOR INTRACELLULAR DELIVERY OF THERAPEUTIC AGENTS” (ModernaTX, Inc., priority 2019, published 2023).
